Assay results as given in US10278929B2, “Identification of stabilizers of multimeric proteins” (The Board of Trustees of the Leland Stanford Junior …, priority 2010, dated 2019).
Where “and” joins values, the source holds several entries; their conditions need not be identical. Identical values can stand only once. Like-named read-outs stand apart in the source and are kept apart here. Values belong to the compound of their own block, whether it stands above or below them.

What was measured:
[1] = biological target: wild type biotinylated TTR (Homo sapiens (Human), UniProt P02766); test: Surface plasmon resonance on immobilized biotinylated TTR; format: binding; settings: SPR
Procedure: To an ice-cold solution of TTR (20 μM) in PBS was added EZ-Link Sulfo-NHS-LC-Biotin at a ratio of ˜2:1 (biotin:TTR) (minimal biotinylation) and the solution was incubated at room temperature. After 1 hour, un-reacted biotin was removed by passing the sample over a fast (FPLC) desalting column (Superdex™ 75) equilibrated with PBS.
SPR measurements were performed at 25° C. using a Biacore T100 (GE Healthcare) instrument equilibrated in 1% DMSO in PBS as a running buffer. After pretreatment of the streptavidin-coated chip (Sensor Chop SA, Biacore), ˜4000 RU biotinylated TTR was immobilized on one channel leaving the second flow channel as a blank (streptavidin alone) control. For binding measurements, HTS hits were diluted in running buffer (1% DMSO/PBS) and different dilution series were flowed over the chip at 50 μL/min ([…], 600 s wash). A zero concentration sample was used as a negative control. The kinetic data was fitted to a one-to-one binding model using Biacore T100 evaluation software.

TTR [2] = biological target: T1, TTR (Homo sapiens (Human), UniProt P02766); test: Fluorescence polarization displacement of probe 5 from TTR; settings: probe 5 100 nM, TTR 200 nM
[3] = tested on: WT TTR cytotoxicity in IMR-32 neuroblastoma cells; test: Inhibition of WT TTR-induced cytotoxicity, resazurin reduction; settings: TTR and ligand 8 μM, 24 h
[4] = tested on: V1221 TTR cytotoxicity in AC16 cardiac cells; test: Inhibition of V1221 TTR-induced cytotoxicity, resazurin reduction; settings: TTR and ligand 8 μM, 24 h
WT TTR = WT TTR (Homo sapiens (Human), UniProt P02766); test: Acid-mediated fibril formation (turbidity) assay for TTR amyloidogenesis
TTR [5] = biological target: T1, TTR; test: FP saturation binding experiment; settings: FITC alone
Procedure: The binding of probe 5 for TTR was evaluated as follows. […] The samples were allowed to equilibrate by agitation for 20 min at room temperature. Fluorescence polarization (excitation λ 485 nm, emission λ 525 nm, Cutoff λ 515 nm) measurements were taken using SpectraMax M5 Microplate Reader (Molecular Devices). […] Nonspecific FP, produced by the free fluorescent probe 5 as well as by binding of 5 to the plate, was equal to 70±10 mP.

[6] = biological target: human TTR (wild type, from human plasma) (Homo sapiens (Human), UniProt P02766); test: Isothermal titration calorimetry (ITC) of ligands against TTR; format: binding; settings: 5 versus 4
Procedure: Calorimetric titrations were carried out on a VP-ITC calorimeter (MicroCal, Northhampton, Mass.). […] Prior to each titration, all samples were degassed for 10 minutes. The initial injection of 3.0 μL was followed by 30 injections of 8.0 μL each (25° C.) to the point that TTR was fully saturated with ligand. Integration of the thermogram after subtraction of blanks yielded a binding isotherm that was analyzed with MicroCal Origin 5.0 software.

Compound: O=[N+]([O-])c1cc(O)c(O)c([N+](=O)[O-])c1 [3,5-dinitrocatechol]
Prevention of WT TTR-induced cytotoxicity [3]: poor inhibitor | Prevention of V1221 TTR-induced cytotoxicity [4]: poor inhibitor

Compound: O=C(c1cc(O)c(O)c([N+](=O)[O-])c1)c1ccccc1F [Ro 41-0960]
Prevention of WT TTR-induced cytotoxicity [3]: completely prevented TTR-induced cytotoxicity | Inhibition of fibril formation at substoichiometric ligand (WT TTR): > 75% | Prevention of V1221 TTR-induced cytotoxicity [4]: completely prevented TTR-induced cytotoxicity

Compound: O=C(O)c1cccnc1Nc1cccc(C(F)(F)F)c1 [Niflumic acid, niflumic acid]
Prevention of V1221 TTR-induced cytotoxicity [4]: relatively poor inhibitor

Compound: fluorescein isothiocyanate [FITC]
Change in FP signal upon addition of TTR (TTR [5]): no change in the FP signal

The remaining lines, values ahead:

target residence time, fold lower than 7 [1]: ~40 × | FP Kapp (apparent binding constant) (TTR [2]): 4.66 µM
Compound: O=C(O)Cc1ccccc1Nc1c(Cl)cccc1Cl [Diclofenac]

Inhibition of fibril formation at substoichiometric ligand (WT TTR; ligand 3.0 μM, TTR 3.6 μM, monitored over 5 days): > 75%
Compound: Cc1n[nH]c(C)c1CCc1nc2c3ccccc3[nH]c(=O)n2n1 [Compound 15]

FP Kapp (apparent binding constant) (TTR [2]): 0.231 μM and 0.231 (R^2 = 0.997) μM
Compound: O=C(O)c1ccc(-c2c(F)cccc2F)cc1 [Compound 1]

Fold decrease in binding affinity to TTR on attaching FITC to 4 [6]: ~3 fold
Compound: O=C(O)c1ccccc1Nc1cc(Cl)c(OCCOCCOCCNC(=S)Nc2ccc3c(c2)C(=O)OC32c3ccc(O)cc3Oc3cc(O)ccc32)c(Cl)c1 [Compound 5, 2-(3,5-dichloro-4-(2-(2-(2-(3-(3′,6′-dihydroxy-3-oxo-3H-spiro[isobenzofuran-1,9′-xanthene]-5-yl)thioureido)ethoxy)ethoxy)ethoxy)phenylamino)benzoic acid]
